Several values for one entry are separate records, joined by “and”; a condition that tells them apart may be missing. Identical values can stand only once. Like-named read-outs stand apart in the source and are kept apart here. Numbered stars: 1 amine (or outer) side, 2 acyl side, 3 side chain; on linkers, the order of the positions; unused ones are H or OH. Bridge positions count the residues as written; N and C are the ends. Peptide text beside a SMILES is read from it. * marks the point of attachment. X1 = O=C(O)CN1CCN(CC(=O)O)CCN(CC(=O)N2CCN(Cc3cc(C[*:1])cc(C[*:2])c3)CC2)CCN(CC(=O)O)CC1; Hexanoyl = CCCCCC(=O)*
How the values were obtained:
[1] = In vivo biodistribution by SPECT/CT imaging; set-up: species or system C57BL/6 mice; details: female, C57BL/6, mouse, total radioactivity; for tissue uptake at 3 h / tissue uptake at 24 h / tissue uptake at 48 h / tissue uptake at 72 h: mean ± SD, n = 6, SD
Method: All animal experiments were carried out under licenses approved by the respective authorities and in compliance with guidelines on animal welfare. […] Animals were anesthetized (isoflurane 3% in 100% O2) and eye lubricants were applied before each scan. Study was performed at Minerva Imaging ApS (Denmark).
Imaging and image analysis were performed as described. During the scan, mice were kept under isoflurane anesthesia, and body temperature was maintained under warm air. The following acquisition parameters were used for the respective imaging modality.
For quantification, VivoQuant (InviCRO) was used to draw regions of interest (ROIs) in relevant tissues, with a ROI drawn over the left ventricle of the heart to serve as blood pool surrogate. Percentage injected dose per gram of tissue (%ID/g) was calculated from the tissue-associated radioactivity determined in the ROI, the volume of the ROI, and the decay-corrected dose entered during preprocessing of the images in VivoQuant.

MCA205-mFAP tumors = assay: Tumor mass in pharmacodynamic study; assay type: in vivo, C57BL/6 mice; details: day 13 pi; n = 8 per group; vehicle 1433 mg
Text: (§1) Female C57BL/6 mice were subcutaneously implanted with 1 × 10^6 MCA205-mFAP cells (n = 12 per group). […] Treatment began when the MTV was 94 mm^3 (mean body weight 20.4 g). […] Treatment began when MTV was 162 mm^3 (mean body weight 20.8 g) and tumors were collected at days 8 and 13 pi for analysis.

[2] = tested on: immune gene expression in MCA205-mFAP tumors; assay: Tumor RNA expression analysis (nCounter PanCancer Immune Profiling panel); assay type: in vivo, C57BL/6 mice
Text: Total RNA was isolated from tumors using the PureLink RNA Mini kit (Thermo Fisher Scientific) following the manufacturer’s protocol. The nCounter PanCancer Immune Profiling (mouse) panel (NanoString Technologies) was used to measure the expression in the RNA samples. Following hybridization, transcripts were quantitated and analyzed using the nCounter Digital Analyzer and nCounter Advanced Analysis Software v4.0 (NanoString Technologies). Data were normalized for assay efficiency by multiplying each count by a positive normalization factor obtained for each sample. For differential expression analysis, the Benjamini-Yekutieli statistical analysis, which calculates false discovery rate, was employed to generate an adjusted p-value.

[3] = tested on: MCA205-mFAP syngeneic tumor model; assay: Tumor in vivo efficacy study
Method: Female C57BL/6 mice were subcutaneously implanted with 1 × 10^6 MCA205-mFAP cells (n = 12 per group). […] Treatment began when the MTV was 94 mm^3 (mean body weight 20.4 g).
Calculation of tumor growth inhibition (TGI). Percent TGI is defined as the difference between the mean tumor volume of the test group and the control group. TGI values are calculated as follows:
Tᵢ is the mean tumor volume of a treatment group on a given day i, T₀ is the mean tumor volume of the treatment group on the day treatment started (day 0), Vᵢ is the mean tumor volume of the vehicle control group on the same day as Tᵢ, and V₀ is the mean tumor volume of the vehicle group on the initial day of treatment (day 0).
Calculation of body weight loss. Relative body weight (RBW) was calculated as follows:
BWᵢ is the mean body weight of one group on a given day i, BW0 is the mean body weight of the same group on the day treatment started (day 0).
Statistical analysis. For the evaluation of the statistical significance of antitumor efficacy, body weight change, and immune profiling, two-way ANOVA with multiple comparisons was performed using GraphPad Prism (Version 8.4).
All P values <0.05 were considered statistically significant.

[4] = tested on: immune infiltrates of MCA205-mFAP tumors; assay: Ex vivo immune profiling of tumors by flow cytometry; details: for CD8^+ (%, CD45^+) / CD86^+ on TAM (MFI) / CD127^+CD8^+ (%, CD8^+) / CD127 on CD127^+CD8^+ (MFI) / T cells (%, CD45^+) / TAM (%, CD45^+) / CD45^+ (%, total): mean ± SEM; for CD8^+ (%, CD45^+) / CD86^+ on TAM (MFI) / CD127^+CD8^+ (%, CD8^+) / CD127 on CD127^+CD8^+ (MFI) / T cells (%, CD45^+) / TAM (%, CD45^+) / CD4+ (%, CD45+) / CD25+CD4+ (%, CD4+) / CD25+CD8+ (%, CD8+) / CD25 on CD4+ (MFI) / CD25 on CD25+CD8+ (MFI) / CD86+ TAMs (%, TAMs) / CD127+CD4+ (%, CD4+) / CD127 on CD4+ (MFI) / CD45^+ (%, total): n = 8 per group; for CD45^+ (%, total): tumor flow cytometry;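 as to all read-outs here: subcutaneous MCA205-mFAP tumors in female C57BL/6 mice, treated from a mean tumor volume of 162 mm^3, excised on day 8 or 13 pi and profiled by flow cytometry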
Method: as §1
Tumors were dissected into small pieces, digested using a tumor dissociation enzyme mix (Miltenyi Biotec) at 37 °C for 40 min in a shaking water bath, processed through 70 μM cell strainers and counted (NucleoCounter NC-202, Chemotec). Cells (10 × 10^6) were Fc-blocked (2.4G2, BD Biosciences) and stained in FACS buffer (PBS with 0.5% BSA, 0.1% NaN3 and 2 mM EDTA) with Brilliant Stain Buffer Plus (BD Biosciences) for surface markers CD45 (30-F11), CD3 (145-2C11), CD4 (RM4-5), CD8 (53–6.7), CD25 (PC61), CD127 (SB/199), Ly6g (1A8), Ly6c (HK1.4), CD11b (M1/70), CD86 (GL1), CD314 (CX5), F4/80 (T45-2342), and eFlour 780 fixable viability dye (Thermo Fisher Scientific) for 30 min on ice. Anti-Ly6c was purchased from Biolegend, while remaining antibodies were from BD Biosciences. Samples were washed and acquired on the FACSymphony A3 and analyzed in FlowJo v10.8.1 (BD Biosciences, Supplementary Fig. S1).
PMN-MDSC CD45+ CD11b+ Ly6c+ Ly6g+
Mo-MDSC CD45+ CD11b+ Ly6c HighLy6g-
Gating strategy for immune profiling of MCA205-mFAP tumors by flow
cytometry. Representative bivariate density plots show gating strategy to identify the PMN-MDSC, Mo-
MDSC, TAM and T-cells in the MCA205-mFAP tumors (A). Marker sets used to identify each immune
cell type are listed (B).

[5] = tested on: T cell infiltrates of MCA205-mFAP tumors; assay: IHC quantification of CD8+ and CD4+ T cells in tumors
Method: Tumors were formalin-fixed and paraffin-embedded and processed into 4 μm tissue sections. Tumor sections were stained for FAP (EPR20021, Abcam), CD8 (D4W2Z, Cell Signaling), and CD4 (EPR19514, Abcam) on a Bond Rx autostainer (Leica Biosystems) with Bond Polymer Refine Detection (Leica Biosystems) according to the manufacturer's protocol. After staining, sections were dehydrated and film cover slipped using a TissueTek-Prisma and Coverslipper (Sakura). Whole slide scanning (40x) was performed on an Aperio AT2 (Leica Biosystems). Image analysis and quantification was performed on Aperio ImageScope v12.1 (Leica Biosystems) or QuPath v0.1.2 [18].
A tissue slide containing both intrinsic positive staining structures was included in every staining run. For FAP H-score assessment, the staining intensity was scored as 0, 1, 2, or 3 corresponding to the presence of negative, weak, intermediate, and strong brown staining, respectively. The average percentage positive was calculated for each intensity category and the following calculation was applied: H-score = (% of cells stained at intensity category 1 x 1) + (% of cells stained at intensity category 2 x 2) + (% of cells stained at intensity category 3 x 3). Image analysis scoring was previously validated against scoring performed by a pathologist. For CD4 and CD8 percentage assessment, QuPath positive cell detection function was used.

[6] = day 8 pi, differential expression versus vehicle, 770-plex panel

CCCCCC(=O)N[C@H]1CSCc2cc(cc(CN3CCN(C(=O)CN4CCN(CC(=O)O)CCN(CC(=O)O)CCN(CC(=O)O)CC4)CC3)c2)CSC[C@@H](C(=O)N[C@@H](CC(=O)O)C(N)=O)NC(=O)[C@H](Cc2ccccc2)NC(=O)[C@H](CCC(N)=O)NC(=O)[C@H]([C@@H](C)O)NC(=O)[C@@H]2CCCN2C(=O)[C@@H]2CCCN2C1=O [^177Lu-FAP-2287, metal not drawn] (Hexanoyl-CPPTQFCD-NH2; linker 1-7 via X1; N-terminus and C-terminus assumed)
tissue uptake at 3 h ([1]; blood pool surrogate (left ventricle of the heart), iv, 30 MBq, 3 h p.i., ROI over left ventricle of the heart, read-out: Blood Pool Surrogate %ID/g): 0.5 %ID/g | tissue uptake at 24 h ([1]; blood pool surrogate (left ventricle of the heart), iv, 30 MBq, 24 h p.i., ROI over left ventricle of the heart, read-out: Blood Pool Surrogate %ID/g): 0.1 %ID/g | tissue uptake at 48 h ([1]; blood pool surrogate (left ventricle of the heart), iv, 30 MBq, 48 h p.i., ROI over left ventricle of the heart, read-out: Blood Pool Surrogate %ID/g): 0.1 %ID/g | tissue uptake at 72 h ([1]; blood pool surrogate (left ventricle of the heart), iv, 30 MBq, 72 h p.i., ROI over left ventricle of the heart, read-out: Blood Pool Surrogate %ID/g): 0.1 %ID/g | tissue uptake at 3 h ([1]; kidney, 3 h p.i., 30 MBq iv, read-out: Kidney %ID/g): 2 ± 0.1 %ID/g | tissue uptake at 24 h ([1]; kidney, 24 h p.i., 30 MBq iv, read-out: Kidney %ID/g): 1.1 ± 0.1 %ID/g | tissue uptake at 48 h ([1]; kidney, 48 h p.i., 30 MBq iv, read-out: Kidney %ID/g): 0.9 %ID/g | tissue uptake at 72 h ([1]; kidney, 72 h p.i., 30 MBq iv, read-out: Kidney %ID/g): 0.6 ± 0.1 %ID/g | tissue uptake at 3 h ([1]; liver, 3 h p.i., 30 MBq iv, read-out: Liver %ID/g): 0.5 %ID/g | tissue uptake at 24 h ([1]; liver, 24 h p.i., 30 MBq iv, read-out: Liver %ID/g): 0.3 %ID/g | tissue uptake at 48 h ([1]; liver, 48 h p.i., 30 MBq iv, read-out: Liver %ID/g): 0.3 %ID/g | tissue uptake at 72 h ([1]; liver, 72 h p.i., 30 MBq iv, read-out: Liver %ID/g): 0.2 %ID/g | tissue uptake at 3 h ([1]; tumor, 3 h p.i., 30 MBq (1 nmol) iv, SPECT/CT, read-out: Tumor %ID/g): 8.2 ± 0.5 %ID/g | tissue uptake at 24 h ([1]; tumor, 24 h p.i., 30 MBq (1 nmol) iv, SPECT/CT, read-out: Tumor %ID/g): 2.9 ± 0.2 %ID/g | tissue uptake at 48 h ([1]; tumor, 48 h p.i., 30 MBq (1 nmol) iv, SPECT/CT, read-out: Tumor %ID/g): 1.6 ± 0.1 %ID/g | tissue uptake at 72 h ([1]; tumor, 72 h p.i., 30 MBq (1 nmol) iv, SPECT/CT, read-out: Tumor %ID/g): 0.9 ± 0.1 %ID/g | tissue to tissue ratio at 3 h ([1]; tumor/kidney, iv, 30 MBq, 3 h p.i., read-out: T/K ratio (tumor-to-kidney)): 4.1 | tissue to tissue ratio at 24 h ([1]; tumor/kidney, iv, 30 MBq, 24 h p.i., read-out: T/K ratio (tumor-to-kidney)): 2.6 | tissue to tissue ratio at 48 h ([1]; tumor/kidney, iv, 30 MBq, 48 h p.i., read-out: T/K ratio (tumor-to-kidney)): 1.8 | tissue to tissue ratio at 72 h ([1]; tumor/kidney, iv, 30 MBq, 72 h p.i., read-out: T/K ratio (tumor-to-kidney)): 1.5 | Tumor mass (MCA205-mFAP tumors): 746 mg | number of gene transcripts decreased [2, 6]: 15 genes | number of genes with significantly increased RNA levels [2, 6]: 28 genes | number of day 8 differentially expressed genes still differentially expressed at day 13 pi ([2]; day 13 pi): 16 genes | CCL5 RNA increase in tumors ([2]; fold versus vehicle, day not given): 1.95 fold | TGI, Day 10 ([3]; day 10 pi, versus vehicle, n = 12 per group): 74% | MTV, Day 10 ([3]; day 10 pi, 60 MBq 177Lu-FAP-2287 single iv dose and/or 10 mg/kg anti-PD-1 ip twice weekly, mean ± SEM, n = 12, vehicle 749.6 ± 91.2, SEM): 266.5 ± 53.2 mm^3 | RBW at nadir ([3]; relative body weight change at nadir (Day 2), mean ± SEM, n = 12, SEM): -1.1 ± 0.7% | CD8^+ (%, CD45^+) ([4]; Day 8 pi, SEM): 16.9 ± 3.2% | CD86^+ on TAM (MFI) ([4]; Day 8 pi, SEM): 3928 ± 124 MFI | CD127^+CD8^+ (%, CD8^+) ([4]; Day 8 pi, SEM): 50.0 ± 5.3% | CD127 on CD127^+CD8^+ (MFI) ([4]; Day 8 pi, SEM): 1011 ± 118 MFI | T cells (%, CD45^+) ([4]; Day 8 pi, SEM): 22.9 ± 3.6% | TAM (%, CD45^+) ([4]; Day 8 pi, SEM): 23.0 ± 1.1% | CD4+ (%, CD45+) ([4]; Day 8 pi): 6.0 ± 0.6% | CD25+CD4+ (%, CD4+) ([4]; Day 8 pi): 60.4 ± 1.3% | CD25+CD8+ (%, CD8+) ([4]; Day 8 pi): 7.7 ± 1.1% | CD25 on CD4+ (MFI) ([4]; Day 8 pi): 931 ± 117 MFI | CD25 on CD25+CD8+ (MFI) ([4]; Day 8 pi): 84 ± 6 MFI | CD86+ TAMs (%, TAMs) ([4]; Day 8 pi): 89.5 ± 1.7% | CD127+CD4+ (%, CD4+) ([4]; Day 8 pi): 41.0 ± 1.8% | CD127 on CD4+ (MFI) ([4]; Day 8 pi): 777 ± 43 MFI | CD45^+ (%, total) ([4]; Day 8 pi, SEM): 23.6 ± 3.1% | CD8^+ (%, CD45^+) ([4]; Day 13 pi, SEM): 11.9 ± 1.5% | CD86^+ on TAM (MFI) ([4]; Day 13 pi, SEM): 4063 ± 143 MFI | CD127^+CD8^+ (%, CD8^+) ([4]; Day 13 pi, SEM): 44.5 ± 3.7% | CD127 on CD127^+CD8^+ (MFI) ([4]; Day 13 pi, SEM): 874 ± 86 MFI | T cells (%, CD45^+) ([4]; Day 13 pi, SEM): 19.0 ± 1.5% | TAM (%, CD45^+) ([4]; Day 13 pi, SEM): 39.4 ± 1.4% | CD4+ (%, CD45+) ([4]; Day 13 pi): 7.2 ± 0.4% | CD25+CD4+ (%, CD4+) ([4]; Day 13 pi): 64.5 ± 1.2% | CD25+CD8+ (%, CD8+) ([4]; Day 13 pi): 5.3 ± 0.6% | CD25 on CD4+ (MFI) ([4]; Day 13 pi): 1182 ± 80 MFI | CD25 on CD25+CD8+ (MFI) ([4]; Day 13 pi): 70 ± 4 MFI | CD86+ TAMs (%, TAMs) ([4]; Day 13 pi): 92.0 ± 1.2% | CD127+CD4+ (%, CD4+) ([4]; Day 13 pi): 38.9 ± 2.2% | CD127 on CD4+ (MFI) ([4]; Day 13 pi): 736 ± 51 MFI | CD45^+ (%, total) ([4]; Day 13 pi, SEM): 21.6 ± 1.4% | CD86+ Mo-MDSCs (%, Mo-MDSCs) ([4]; mouse, in vivo): 84.9 ± 1.2% and 82.2 ± 2.9% | PMN-MDSCs (%, CD45+) ([4]; mouse, in vivo): 9.6 ± 3.9% and 10.0 ± 1.3% | CD86^+ on Mo-MDSC (MFI) ([4]; mouse, in vivo, SEM): 3267 ± 80 MFI and 2939 ± 114 MFI | Mo-MDSC (%, CD45^+) ([4]; mouse, in vivo, SEM): 34.9 ± 0.9% and 21.3 ± 1.3% | CD8^+ T cells by IHC (% of total cells) ([5]; day 8 pi, vehicle 4.9%): 9.0% | CD8^+ T cells by IHC (% of total cells) ([5]; day 13, vehicle 4.4%): 8.5%
